12 compounds from ChEMBL document CHEMBL1124687, “Analogues of atriopeptin(103-125)amide having high binding selectivity” (J Med Chem, 1989) can be followed below.

Positions of bridges follow the written chain, without caps; N, C: chain ends. Non-standard residues stand in square brackets, D forms with d. Residues, ends and D or L forms follow the SMILES beside them. ξ: configuration not given here. Nva = CCC[C@H](N)C(=O)O; Abu = CC[C@H](N)C(=O)O; ξA = CC(N)C(=O)O

Test [1] concerns the target Atrial natriuretic peptide receptor (Homo sapiens) (UniProt P20594+P16066+P17342). Description: Selectivity factor, ratio of NVR and VR relative binding potency. In kind it is protein assay. To be noted: Oryctolagus cuniculus.
Test [2] addresses T1, Atrial natriuretic peptide receptor 3 (Homo sapiens) (UniProt P17342).
T1 sequence (whole entry): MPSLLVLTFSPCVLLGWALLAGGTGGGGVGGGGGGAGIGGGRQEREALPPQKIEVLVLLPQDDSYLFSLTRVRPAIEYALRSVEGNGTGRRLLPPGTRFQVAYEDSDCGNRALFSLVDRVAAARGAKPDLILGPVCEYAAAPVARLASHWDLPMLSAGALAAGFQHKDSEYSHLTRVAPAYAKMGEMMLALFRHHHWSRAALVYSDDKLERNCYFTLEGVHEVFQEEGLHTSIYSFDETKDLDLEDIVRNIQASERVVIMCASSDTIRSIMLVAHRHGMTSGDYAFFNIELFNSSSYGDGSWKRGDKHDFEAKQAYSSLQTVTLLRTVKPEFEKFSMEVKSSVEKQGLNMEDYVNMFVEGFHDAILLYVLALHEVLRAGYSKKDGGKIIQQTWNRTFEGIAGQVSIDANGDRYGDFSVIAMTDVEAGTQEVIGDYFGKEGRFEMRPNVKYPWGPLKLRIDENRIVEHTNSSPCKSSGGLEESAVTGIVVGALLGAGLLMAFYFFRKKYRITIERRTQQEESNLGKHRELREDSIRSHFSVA
Description: Binding affinity for non-vasorelaxant receptor by competitive displacement of [125I]-AP(103-126) from rabbit lung membranes. The conditions noted are these: Oryctolagus cuniculus, Membrane, target entry is the homologue from another species. In kind it is tissue-based.

For a further test, the species on record is Oryctolagus cuniculus. Description: Binding affinity for vasorelaxant receptor by competitive displacement of [125I]-AP(103-126) from rabbit lung membranes. The conditions noted are these: Membrane. In kind it is tissue-based.

For the compound `CC[C@H](C)[C@@H]1NC(=O)[C@H](CCCN=C(N)N)NC(=O)CNC(=O)CNC(=O)[C@H](Cc2ccccc2)NC(=O)[C@H](CO)NC(=O)[C@@H](NC(=O)[C@@H](N)CO)CSSC[C@@H](C(=O)N[C@@H](CO)C(=O)N[C@@H](Cc2ccccc2)C(=O)N[C@@H](CCCN=C(N)N)C(N)=O)NC(=O)[C@H](CO)NC(=O)CNC(=O)[C@H](CC(C)C)NC(=O)CNC(=O)[C@H](CO)NC(=O)[C@H](CCC(N)=O)NC(=O)[C@H](C)NC(=O)CNC(=O)[C@H]([C@@H](C)CC)NC(=O)[C@@H](CCCN=C(N)N)NC(=O)[C@H](CC(=O)O)NC1=O`, the Ratio in test [1] turned out to be 400. Further, the Relative potency in test [2] stood at 2; in the test listed under Oryctolagus cuniculus it was 0.005.
As for `CC[C@H](C)[C@@H]1NC(=O)[C@H](CCCN=C(N)N)NC(=O)[C@H](CC(=O)O)NC(=O)[C@H]([C@@H](C)CC)NC(=O)[C@H](CCCN=C(N)N)NC(=O)CNC(=O)CNC(=O)[C@H](Cc2ccccc2)NC(=O)CNC(=O)[C@@H](NC(=O)[C@@H](N)CO)CSSC[C@H](C(=O)N[C@@H](CC(N)=O)C(=O)N[C@@H](CO)C(=O)N[C@@H](Cc2ccccc2)C(=O)N[C@@H](CCCN=C(N)N)C(N)=O)NC(=O)CNC(=O)[C@H](CC(C)C)NC(=O)CNC(=O)[C@H](CO)NC(=O)[C@H](CCC(N)=O)NC(=O)[C@H](C)NC(=O)CNC1=O`, the Ratio in test [1] came to 32. Also, the figures for the Relative potency (in test [2]; in the test listed under Oryctolagus cuniculus) were 1.8 and 0.056, respectively.
In the case of `CC[C@H](C)[C@@H]1NC(=O)[C@H](CCCN=C(N)N)NC(=O)[C@H](CC(=O)O)NC(=O)[C@H]([C@@H](C)CC)NC(=O)[C@H](CCCN=C(N)N)NC(=O)CNC(=O)CNC(=O)[C@H](Cc2ccccc2)NC(=O)[C@H](NC(=O)[C@H](CO)NC(=O)[C@@H](N)CO)CSSC[C@@H](C(=O)N[C@@H](CO)C(=O)N[C@@H](Cc2ccccc2)C(=O)N[C@@H](CCCN=C(N)N)C(N)=O)NC(=O)[C@H](CSC)NC(=O)CNC(=O)[C@H](CC(C)C)NC(=O)CNC(=O)[C@H](CO)NC(=O)[C@H](CCC(N)=O)NC(=O)[C@H](C)NC(=O)CNC1=O`, the Ratio in test [1] amounted to 31. In addition, the Relative potency amounted to 3.1 in test [2] and 0.1 in the test listed under Oryctolagus cuniculus.
For `CC[C@H](C)[C@@H]1NC(=O)[C@H](CCCN=C(N)N)NC(=O)[C@H](CC(=O)O)NC(=O)[C@H]([C@@H](C)CC)NC(=O)[C@H](CCCN=C(N)N)NC(=O)CNC(=O)CNC(=O)[C@H](Cc2ccccc2)NC(=O)[C@H](CSC)NC(=O)[C@@H](NC(=O)[C@@H](N)CO)CSSC[C@@H](C(=O)N[C@@H](CC(N)=O)C(=O)N[C@@H](CO)C(=O)N[C@@H](Cc2ccccc2)C(=O)N[C@@H](CCCN=C(N)N)C(N)=O)NC(=O)CNC(=O)[C@H](CC(C)C)NC(=O)CNC(=O)[C@H](CO)NC(=O)[C@H](CCC(N)=O)NC(=O)[C@H](C)NC(=O)CNC1=O` (H-SCC(Me)FGGRIDRIGAQSGLGCNSFR-NH2; disulfide 2-19), the Ratio in test [1] was 24. In addition, the Relative potency in test [2] was 6.6; in the test listed under Oryctolagus cuniculus, 0.28.
On to `CC[C@H](C)[C@@H]1NC(=O)[C@H](CCCN=C(N)N)NC(=O)[C@H](CC(=O)O)NC(=O)[C@H]([C@@H](C)CC)NC(=O)[C@H](CCCN=C(N)N)NC(=O)CNC(=O)CNC(=O)[C@H](Cc2ccccc2)NC(=O)CNC(=O)[C@@H](NC(=O)[C@@H](N)CO)CSSC[C@@H](C(=O)N[C@@H](CO)C(=O)N[C@@H](Cc2ccccc2)C(=O)N[C@@H](CCCN=C(N)N)C(N)=O)NC(=O)CNC(=O)CNC(=O)[C@H](CC(C)C)NC(=O)CNC(=O)[C@H](CO)NC(=O)[C@H](CCC(N)=O)NC(=O)[C@H](C)NC(=O)CNC1=O` (H-SCGFGGRIDRIGAQSGLGGCSFR-NH2; disulfide 2-20), for which the Ratio in test [1] was 217. Also, the Relative potency amounted to 1.5 in test [2] and 0.0069 in the test listed under Oryctolagus cuniculus.
With `CC[C@H](C)[C@@H]1NC(=O)[C@H](CCCN=C(N)N)NC(=O)[C@H](CC(=O)O)NC(=O)[C@H]([C@@H](C)CC)NC(=O)[C@H](CCCN=C(N)N)NC(=O)CNC(=O)CNC(=O)[C@H](Cc2ccccc2)NC(=O)[C@H](CO)NC(=O)[C@@H](NC(=O)[C@@H](N)CO)CSSC[C@@H](C(=O)N[C@@H](CC(N)=O)C(=O)N[C@@H](CO)C(=O)N[C@@H](Cc2ccccc2)C(=O)N[C@@H](CCCN=C(N)N)C(N)=O)NC(=O)CNC(=O)[C@H](CC(C)C)NC(=O)CNC(=O)[C@H](CO)NC(=O)[C@H](CCC(N)=O)NC(=O)[C@H](C)NC(=O)CNC1=O` (H-SCSFGGRIDRIGAQSGLGCNSFR-NH2; disulfide 2-19), the Ratio in test [1] was 16. In addition, the Relative potency in test [2] was 3.8; in the test listed under Oryctolagus cuniculus, 0.24.
Regarding `CC[C@@H]1NC(=O)[C@@H](NC(=O)[C@@H](N)CO)CSSC[C@@H](C(=O)N[C@@H](CC(N)=O)C(=O)N[C@@H](CO)C(=O)N[C@@H](Cc2ccccc2)C(=O)N[C@@H](CCCN=C(N)N)C(N)=O)NC(=O)CNC(=O)[C@H](CC(C)C)NC(=O)CNC(=O)[C@H](CO)NC(=O)[C@H](CCC(N)=O)NC(=O)[C@H](C)NC(=O)CNC(=O)[C@H]([C@@H](C)CC)NC(=O)[C@H](CCCN=C(N)N)NC(=O)[C@H](CC(=O)O)NC(=O)[C@H]([C@@H](C)CC)NC(=O)[C@H](CCCN=C(N)N)NC(=O)CNC(=O)CNC(=O)[C@H](Cc2ccccc2)NC1=O` (H-SC[Abu]FGGRIDRIGAQSGLGCNSFR-NH2; disulfide 2-19), the Ratio in test [1] worked out at 40. In addition, the values for the Relative potency (in test [2]; in the test listed under Oryctolagus cuniculus) were 2.1 and 0.053, respectively.
Take `CCC[C@@H]1NC(=O)[C@@H](NC(=O)[C@@H](N)CO)CSSC[C@@H](C(=O)N[C@@H](CC(N)=O)C(=O)N[C@@H](CO)C(=O)N[C@@H](Cc2ccccc2)C(=O)N[C@@H](CCCN=C(N)N)C(N)=O)NC(=O)CNC(=O)[C@H](CC(C)C)NC(=O)CNC(=O)[C@H](CO)NC(=O)[C@H](CCC(N)=O)NC(=O)[C@H](C)NC(=O)CNC(=O)[C@H]([C@@H](C)CC)NC(=O)[C@H](CCCN=C(N)N)NC(=O)[C@H](CC(=O)O)NC(=O)[C@H]([C@@H](C)CC)NC(=O)[C@H](CCCN=C(N)N)NC(=O)CNC(=O)CNC(=O)[C@H](Cc2ccccc2)NC1=O` (H-SC[Nva]FGGRIDRIGAQSGLGCNSFR-NH2; disulfide 2-19): the Ratio in test [1] is 89. Moreover, the Relative potency is 0.75 in test [2] and 0.0084 in the test filed under Oryctolagus cuniculus.
As for `CCC[C@@H]1NC(=O)CNC(=O)[C@H](CC(C)C)NC(=O)CNC(=O)[C@H](CO)NC(=O)[C@H](CCC(N)=O)NC(=O)[C@H](C)NC(=O)CNC(=O)[C@H]([C@@H](C)CC)NC(=O)[C@H](CCCN=C(N)N)NC(=O)[C@H](CC(=O)O)NC(=O)[C@H]([C@@H](C)CC)NC(=O)[C@H](CCCN=C(N)N)NC(=O)CNC(=O)CNC(=O)[C@H](Cc2ccccc2)NC(=O)[C@H](CCC)NC(=O)[C@@H](NC(=O)[C@@H](N)CO)CSSC[C@@H](C(=O)N[C@@H](CO)C(=O)N[C@@H](Cc2ccccc2)C(=O)N[C@@H](CCCN=C(N)N)C(N)=O)NC1=O` (H-SC[Nva]FGGRIDRIGAQSGLG[Nva]CSFR-NH2; disulfide 2-20), in test [1], the Ratio stood at 470. In addition, the Relative potency in test [2] amounted to 0.47; in the test listed under Oryctolagus cuniculus it was 0.001.
For `CC[C@H](C)[C@@H]1NC(=O)[C@H](CCCN=C(N)N)NC(=O)[C@H](CC(=O)O)NC(=O)[C@H]([C@@H](C)CC)NC(=O)[C@H](CCCN=C(N)N)NC(=O)CNC(=O)CNC(=O)[C@H](Cc2ccccc2)NC(=O)C(C)NC(=O)[C@@H](NC(=O)[C@@H](N)CO)CSSC[C@@H](C(=O)N[C@@H](CC(N)=O)C(=O)N[C@@H](CO)C(=O)N[C@@H](Cc2ccccc2)C(=O)N[C@@H](CCCN=C(N)N)C(N)=O)NC(=O)CNC(=O)[C@H](CC(C)C)NC(=O)CNC(=O)[C@H](CO)NC(=O)[C@H](CCC(N)=O)NC(=O)[C@H](C)NC(=O)CNC1=O` (some centres undefined) (H-SC[ξA]FGGRIDRIGAQSGLGCNSFR-NH2; disulfide 2-19), in test [1], the Ratio was 25. The Relative potency in test [2] was determined as 2.2; in the test filed under Oryctolagus cuniculus, 0.088.
With `CC[C@H](C)[C@@H]1NC(=O)[C@H](CCCN=C(N)N)NC(=O)[C@H](CC(=O)O)NC(=O)[C@H]([C@@H](C)CC)NC(=O)[C@H](CCCN=C(N)N)NC(=O)CNC(=O)CNC(=O)[C@H](Cc2ccccc2)NC(=O)[C@@H](NC(=O)[C@H](CO)NC(=O)[C@@H](N)CO)CSSC[C@@H](C(=O)NCC(=O)N[C@@H](CC(N)=O)C(=O)N[C@@H](CO)C(=O)N[C@@H](Cc2ccccc2)C(=O)N[C@@H](CCCN=C(N)N)C(N)=O)NC(=O)[C@H](CC(C)C)NC(=O)CNC(=O)[C@H](CO)NC(=O)[C@H](CCC(N)=O)NC(=O)[C@H](C)NC(=O)CNC1=O` (H-SSCFGGRIDRIGAQSGLCGNSFR-NH2; disulfide 3-18), in test [1], the Ratio worked out at 1. The Relative potency in test [2] worked out at 0.91.
For the compound `CC[C@H](C)[C@@H]1NC(=O)[C@H](CCCN=C(N)N)NC(=O)[C@H](CC(=O)O)NC(=O)[C@H]([C@@H](C)CC)NC(=O)[C@H](CCCN=C(N)N)NC(=O)CNC(=O)CNC(=O)[C@H](Cc2ccccc2)NC(=O)[C@@H](NC(=O)[C@H](CO)NC(=O)[C@@H](N)CO)CSSC[C@@H](C(=O)N[C@@H](CC(N)=O)C(=O)N[C@@H](CO)C(=O)N[C@@H](Cc2ccccc2)C(=O)N[C@@H](CCCN=C(N)N)C(N)=O)NC(=O)CNC(=O)[C@H](CC(C)C)NC(=O)CNC(=O)[C@H](CO)NC(=O)[C@H](CCC(N)=O)NC(=O)[C@H](C)NC(=O)CNC1=O` (H-SSCFGGRIDRIGAQSGLGCNSFR-NH2; disulfide 3-19), the Ratio in test [1] was 1. Besides, the Relative potency in test [2] was 1.
